In test [1] the test system is TNF-α production stimulated by lipopolysaccharide (LPS) in THP-1. The test can be described thus: Inhibitory activity against TNF-α production using human cell lines (THP-1, LPS). The class given is cell-based. To be noted: 1.5 h, THP-1 cells, 90 minutes, TNF-α in supernatant by ELISA. On the procedure: (2) Inhibitory Activity Against TNF-α Production Using Human Cell Lines
Using THP-1 which is a human monocytic cell line, the inhibitory effect of the compound of the present invention against TNF-α production stimulated by lipopolysaccharide (LPS) was studied.
Each 50 μL of lipopolysaccharide (LPS; Difco #3120-25-0) prepared to a concentration of 40 ng/mL using RPMI-1640 medium containing 10% fetal calf serum (hereinafter abbreviated to RPMI-1640) and RPMI-1640 containing the compound of the present invention was added to a 96-well plate for cell culture. One hundred μL of the cell suspension of THP-1 (Dainippon Pharmaceutical Co., Ltd, #06-202) prepared to a cell density of 2×10^6 cells/mL using RPMI-1640 was added and cultured for 90 minutes at 37° C. in an incubator (5% CO2, 95% air). After completion of the reaction, the culture medium supernatant was recovered and the amount of produced TNF-α was measured using an ELISA kit (Invitrogen, #850090192).
The inhibitory activity against TNF-α production, which is the effect of the compound of the present invention, was calculated as an inhibition rate (%) by the following equation: Inhibition rate (%)={(AC−AX)/(AC−AB)}×100
wherein AB is a measured value without LPS induction;
AC is a measured value with LPS induction in the absence of a test compound; and
AX is a measured value with LPS induction in the presence of a test compound. […]
Background: An ELISA detects its analyte on a solid surface through an enzyme-linked reagent.

Test [2] relates to TNF-α production induced by lipopolysaccharide (LPS) in rats. The test can be described thus: Rat cytokine-production model. The test is classed as in vivo. On the procedure: (3) Rat Cytokine-production Model
The in vivo effect of the compound of the present invention was studied on TNF-α production induced by lipopolysaccharide (LPS) in rats.
A vehicle containing the compound of the present invention was orally administered to male Lew mice (Charles River Japan, Inc.), and after 2 hours, lipopolysaccharide (LPS, 055:B5, Difco) was intravenously administered at the dose of 10 μg/kg (5 animals/group). Only a vehicle was orally administered to a control group (5 animals). Ninety minutes after the LPS treatment, heparinized blood collection was performed via the abdominal cava vein under anesthesia with ether, and blood plasma was obtained by centrifugation (12,000 rpm, 3 minutes, 4° C.). The obtained blood plasma sample was stored at −80° C. until it was used. TNF-α in the blood plasma was measured using an ELISA kit from Genzyme/Techne (#10516).
The inhibitory activity of the compound of the present invention against TNF-α production was calculated as an inhibition rate (%) according to the following equation: Inhibition rate (%)={(AC−AX)/AC}×100
wherein AC is a measured value in case where no test compound was administered under LPS induction, and
AX is a measured value in case where a test compound was administered under LPS induction.

Test [3] addresses recombinant human p38α MAP kinase (Homo sapiens, UniProt Q16539). The test can be described thus: Study on p38α MAP kinase inhibitory activity (ATF2 phosphorylation, Alpha Screen). The test is classed as biochemical. To be noted: phosphorylation of biotinylated ATF2 by recombinant human p38α MAP kinase, 30° C. 30 minutes. On the procedure:
(1) Study on p38α Map Kinase Inhibitory Activity
Using activating transcription factor −2 (hereinafter abbreviated to ATF2) which is a substrate for p38α MAP kinase, the inhibitory action of the compounds of the present invention was investigated on the phosphorylation by a recombinant human p38α MAP kinase.
A kinase buffer (25 mM Tris-HCl (pH 7.5), 5 mM β-glycerophosphate, 2 mM dithiothreitol, 0.1 mM Na3VO4, 10 mM MgCl2) containing a recombinant human p38a MAP kinase was added to a 384-well plate (5 μL)(6.25 ng protein/well) for fluorescence measurement. After addition of a kinase buffer (5 μL) containing the compound of the present invention, the resulting mixture was incubated at room temperature for 20 minutes. […] The amount of a complex of the phosphorylated ATF2 and anti-phosphorylated ATF2 antibody produced by the reaction was measured using an Alpha Screen™ Rabbit Detection kit (Packard #6760607).
The p38α MAP kinase inhibitory activity, which is the effect of the compound of the present invention, was calculated as an inhibition rate (%) according to the following equation: Inhibition rate (%)={(AC−AX)/(AC−AB)}×100
wherein AB is a measured value without addition of the enzyme;
AC is a measured value with addition of the enzyme in the absence of a test compound; and
AX is a measured value with addition of the enzyme in the presence of a test compound. […]

The structures appear in SMILES notation.

Chain of recombinant human p38α MAP kinase (Q16539 whole entry): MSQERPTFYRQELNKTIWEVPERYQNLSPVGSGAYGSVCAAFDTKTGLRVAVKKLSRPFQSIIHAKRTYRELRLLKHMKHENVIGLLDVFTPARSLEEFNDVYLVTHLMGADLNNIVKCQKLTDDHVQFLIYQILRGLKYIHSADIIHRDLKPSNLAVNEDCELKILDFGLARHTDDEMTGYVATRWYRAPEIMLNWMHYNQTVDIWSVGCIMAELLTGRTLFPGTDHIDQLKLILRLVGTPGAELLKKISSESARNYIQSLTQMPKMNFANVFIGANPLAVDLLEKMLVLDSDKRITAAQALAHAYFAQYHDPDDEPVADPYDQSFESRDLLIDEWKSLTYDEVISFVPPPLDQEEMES

As a reminder, the IC50 is the point on the concentration scale where inhibition reaches its midpoint. On to `CN1CCC(c2nc(-c3ccc(=O)n(-c4c(Cl)cccc4Cl)c3)c(-c3ccc(F)cc3Cl)s2)CC1` [Example 10(2), 5-[5-(2-chloro-4-fluorophenyl)-2-(1-methylpiperidin-4-yl)-1,3-thiazol-4-yl]-1-(2,6-dichlorophenyl)pyridin-2(1H)-one], for which the IC50 in test [1] and in test [3] was 1.4 nM in each case. Besides, the “TNF-α production inhibitory activity stronger by a factor than that of the compound disclosed in WO 01/030778” value in test [2] (comparison in same experimental model (1 mg/kg vs 10 mg/kg)) is at least 10. Also, the “inhibition against in vivo TNF-α production induced by LPS stimulation” value in test [2] (dose of 1 mg/kg orally, LPS 10 μg/kg i.v. after 2 hours, plasma 90 minutes after LPS) was 90%.

`C[C@H](Nc1cc(-c2sc(C3CCN(C)CC3)nc2-c2ccc(F)cc2)ccn1)c1ccccc1` [compound disclosed in WO 01/030778, 4-[4-(4-fluorophenyl)-2-(1-methyl-4-piperidinyl)-1,3-thiazol-5-yl]-N-[(1S)-1-phenylethyl]-2-pyridinamine, reference compound]: the “inhibition against in vivo TNF-α production induced by LPS stimulation” value in test [2] (dose of 10 mg/kg, same experimental model) came to 95%.
